Experimental data: patent US11833133B2, “Solid oral pharmaceutical composition” (Orient Pharma Co., Ltd., priority 2020, dated 2023)

Experiments:
[1] = Dissolution test, USP apparatus II (Paddle Method) with sinkers, HPLC; type: physicochemical
Protocol: Dissolution Methods and Assay
Dissolution medium such as 0.1N HCl, phosphate buffer (pH 4.5) and phosphate buffer (pH 6.8) were prepared following USP Method. 0.3% Tween 80 was added into the medium to help solubilize the active ingredients. Dissolution conditions were summarized as in the following. Dissolution samples were analyzed by HPLC method.
Apparatus: USP apparatus II (Paddle Method) with sinkers.
Medium: 0.1N HCl, Phosphate Buffer phosphate buffer (pH 4.5) or Phosphate Buffer phosphate buffer (pH 6.8).
Filter: 10 μm HDPE full flow filter tips

[2] = Long term stability of composition of pitavastatin calcium and ezetimibe (25° C./60% RH); type: physicochemical; details: Example 5 composition, Alu-alu blisters
Protocol: The composition of pitavastatin calcium and ezetimibe prepared in Example 5 of the present disclosure were packed in Alu-alu blisters and stored under long term stability (25° C./60% RH). The assay of pitavastatin calcium and ezetimibe as well as the impurities were measured.

[3] = tested on: nephrectomized rats fed high-cholesterol; details: cited from earlier work
[4] = Example 1 single layered tablet, 5 min
[5] = Example 1 single layered tablet, 10 min
[6] = Example 1 single layered tablet, 15 min
[7] = Example 1 single layered tablet, 30 min
[8] = Example 1 single layered tablet, 45 min
[9] = Example 2 double layered tablet, 5 min
[10] = Example 2 double layered tablet, 10 min
[11] = Example 2 double layered tablet, 15 min
[12] = Example 2 double layered tablet, 30 min
[13] = Example 2 double layered tablet, 45 min
[14] = pellets in one capsule (Example 5), 5 min
[15] = pellets in one capsule (Example 5), 10 min
[16] = pellets in one capsule (Example 5), 15 min
[17] = pellets in one capsule (Example 5), 20 min
[18] = pellets in one capsule (Example 5), 30 min
[19] = pellets in one capsule (Example 5), 45 min

SMILES: O=C([O-])C[C@H](O)C[C@H](O)/C=C/c1c(C2CC2)nc2ccccc2c1-c1ccc(F)cc1.O=C([O-])C[C@H](O)C[C@H](O)/C=C/c1c(C2CC2)nc2ccccc2c1-c1ccc(F)cc1.[Ca+2] [Pitavastatin Ca, pitavastatin calcium]
- % Released into 0.1 N HCl with 0.3% Tween 80 at sampling time (min) [1, 4]: 79%
- % Released into Phosphate Buffer (pH 6.8) with 0.3% Tween 80 at sampling time (min) [1, 4]: 69%
- % Released into 0.1 N HCl with 0.3% Tween 80 at sampling time (min) [1, 5]: 84%
- % Released into Phosphate Buffer (pH 6.8) with 0.3% Tween 80 at sampling time (min) [1, 5]: 90%
- % Released into 0.1 N HCl with 0.3% Tween 80 at sampling time (min) [1, 6]: 86%
- % Released into Phosphate Buffer (pH 6.8) with 0.3% Tween 80 at sampling time (min) [1, 6]: 95%
- % Released into 0.1 N HCl with 0.3% Tween 80 at sampling time (min) [1, 7]: 89%
- % Released into Phosphate Buffer (pH 6.8) with 0.3% Tween 80 at sampling time (min) [1, 7]: 97%
- % Released into 0.1 N HCl with 0.3% Tween 80 at sampling time (min) [1, 8]: 90%
- % Released into Phosphate Buffer (pH 6.8) with 0.3% Tween 80 at sampling time (min) [1, 8]: 98%
- % Released into 0.1 N HCl with 0.3% Tween 80 at sampling time (min) [1, 9]: 81%
- % Released into Phosphate Buffer (pH 6.8) with 0.3% Tween 80 at sampling time (min) [1, 9]: 90%
- % Released into 0.1 N HCl with 0.3% Tween 80 at sampling time (min) [1, 10]: 87%
- % Released into Phosphate Buffer (pH 6.8) with 0.3% Tween 80 at sampling time (min) [1, 10]: 96%
- % Released into 0.1 N HCl with 0.3% Tween 80 at sampling time (min) [1, 11]: 89%
- % Released into Phosphate Buffer (pH 6.8) with 0.3% Tween 80 at sampling time (min) [1, 11]: 97%
- % Released into 0.1 N HCl with 0.3% Tween 80 at sampling time (min) [1, 12]: 86%
- % Released into Phosphate Buffer (pH 6.8) with 0.3% Tween 80 at sampling time (min) [1, 12]: 99%
- % Released into 0.1 N HCl with 0.3% Tween 80 at sampling time (min) [1, 13]: 89%
- % Released into Phosphate Buffer (pH 6.8) with 0.3% Tween 80 at sampling time (min) [1, 13]: 100%
- % Released into 0.1 N HCl with 0.3% Tween 80 at sampling time (min) [1, 14]: 90%
- % Released into Phosphate Buffer (pH 4.5) with 0.3% Tween 80 at sampling time (min) [1, 14]: 82%
- % Released into Phosphate Buffer (pH 6.8) with 0.3% Tween 80 at sampling time (min) [1, 14]: 81%
- % Released into 0.1 N HCl with 0.3% Tween 80 at sampling time (min) [1, 15]: 99%
- % Released into Phosphate Buffer (pH 4.5) with 0.3% Tween 80 at sampling time (min) [1, 15]: 100%
- % Released into Phosphate Buffer (pH 6.8) with 0.3% Tween 80 at sampling time (min) [1, 15]: 98%
- % Released into 0.1 N HCl with 0.3% Tween 80 at sampling time (min) [1, 16]: 100%
- % Released into Phosphate Buffer (pH 4.5) with 0.3% Tween 80 at sampling time (min) [1, 16]: 102%
- % Released into Phosphate Buffer (pH 6.8) with 0.3% Tween 80 at sampling time (min) [1, 16]: 102%
- % Released into 0.1 N HCl with 0.3% Tween 80 at sampling time (min) [1, 17]: 100%
- % Released into Phosphate Buffer (pH 4.5) with 0.3% Tween 80 at sampling time (min) [1, 17]: 102%
- % Released into Phosphate Buffer (pH 6.8) with 0.3% Tween 80 at sampling time (min) [1, 17]: 102%
- % Released into 0.1 N HCl with 0.3% Tween 80 at sampling time (min) [1, 18]: 100%
- % Released into Phosphate Buffer (pH 4.5) with 0.3% Tween 80 at sampling time (min) [1, 18]: 102%
- % Released into Phosphate Buffer (pH 6.8) with 0.3% Tween 80 at sampling time (min) [1, 18]: 102%
- % Released into 0.1 N HCl with 0.3% Tween 80 at sampling time (min) [1, 19]: 99%
- % Released into Phosphate Buffer (pH 4.5) with 0.3% Tween 80 at sampling time (min) [1, 19]: 102%
- % Released into Phosphate Buffer (pH 6.8) with 0.3% Tween 80 at sampling time (min) [1, 19]: 102%
- Assay (%) ([2]; 3 Months): 96.4%
- Impurities (%), Major ([2]; 3 Months): 0.03%
- Impurities (%), Total ([2]; 3 Months): 0.03%
- Assay (%) ([2]; 6 Months): 97%
- Impurities (%), Major ([2]; 6 Months): 0.09%
- Impurities (%), Total ([2]; 6 Months): 0.09%
- Assay (%) ([2]; 9 Months): 95%
- Impurities (%), Major ([2]; 9 Months): 0.08%
- Impurities (%), Total ([2]; 9 Months): 0.13%
- Assay (%) ([2]; 12 Months): 96.5%
- Impurities (%), Major ([2]; 12 Months): 0.05%
- Impurities (%), Total ([2]; 12 Months): 0.05%
- Assay (%) ([2]; Initial): 98.2%
- Impurities (%), Major ([2]; Initial): 0.02%
- Impurities (%), Total ([2]; Initial): 0.02%
- Kidney dysfunction / kidney damage [3]: additively ameliorates kidney damage
